ChEMBL document CHEMBL1152944, “Design, synthesis and biological evaluation of novel triazole, urea and thiourea derivatives of quinoline against Mycobacterium tuberculosis” (Bioorg Med Chem, 2009)
≈ marks a conversion by molar mass, not a printed value.

Tests used:
[1] = system: Mycobacterium tuberculosis; experiment: Antimycobacterial activity against Mycobacterium tuberculosis H37Rv ATCC 27294 at 6.25 ug/mL by BACTEC 460 radiometric assay; type: functional
[2] = system: Mycobacterium tuberculosis; experiment: Antimycobacterial activity against Mycobacterium tuberculosis H37Rv ATCC 27294; type: functional
[3] = Cytotoxicity against mouse macrophage cells assessed as cell viability at 10 ug/100 ul after 24 hrs by MTT assay; type: cell-based; details: read-out: Activity
[4] = Cytotoxicity against mouse macrophage cells assessed as cell viability at 10 ug/100 ul after 72 hrs by MTT assay; type: cell-based; details: read-out: Activity
[5] = Cytotoxicity against mouse macrophage cells assessed as cell viability at 1 ug/100 ul after 24 hrs by MTT assay; type: cell-based; details: read-out: Activity
[6] = Cytotoxicity against mouse macrophage cells assessed as cell viability at 1 ug/100 ul after 72 hrs by MTT assay; type: cell-based; details: read-out: Activity

SMILES	inhibition at 6.25 µg/mL [1]	also measured
CC(O)c1cc(F)ccc1Oc1nc2ccc(NC(=O)Nc3cccc([N+](=O)[O-])c3)cc2cc1Cc1ccccc1 (stereo not given)	98%	MIC [2]: 6.25 µg/mL (≈ 11.3 µM); viability at 24 h, 10 ug/100 ul [3]: 87%; viability at 72 h, 10 ug/100 ul [4]: 53%; viability at 24 h, 1 ug/100 ul [5]: 91%; viability at 72 h, 1 ug/100 ul [6]: 55%
COc1cccc(-c2ccn(CC(O)c3cc(F)ccc3Oc3nc4ccc([N+](=O)[O-])cc4cc3Cc3ccccc3)n2)c1 (stereo not given)	7%	–
COc1ccc(-c2ccn(CC(O)c3cc(F)ccc3Oc3nc4ccc([N+](=O)[O-])cc4cc3Cc3ccccc3)n2)cc1 (stereo not given)	5%	–
CC(c1cc(F)ccc1Oc1nc2ccc(-n3cc(-c4ccccc4)nn3)cc2cc1Cc1ccccc1)N1CCCCC1 (stereo not given)	81%	–
O=[N+]([O-])c1ccc2nc(Oc3ccc(F)cc3C(O)CN3CCOCC3)c(Cc3ccccc3)cc2c1 (stereo not given)	29%	–
COc1ccccc1NC(=O)Nc1ccc2nc(Oc3ccc(F)cc3C(C)O)c(Cc3ccccc3)cc2c1 (stereo not given)	8%	–
COc1cccc(NC(=S)Nc2ccc3nc(Oc4ccc(F)cc4C(C)O)c(Cc4ccccc4)cc3c2)c1 (stereo not given)	22%	–
COc1ccc(NC(=O)Nc2ccc3nc(Oc4ccc(F)cc4C(C)O)c(Cc4ccccc4)cc3c2)cc1 (stereo not given)	25%	–
CC(c1cc(F)ccc1Oc1nc2ccc(-n3cc(-c4ccccc4)nn3)cc2cc1Cc1ccccc1)N1CCN(c2ccccn2)CC1 (stereo not given)	29%	–
O=[N+]([O-])c1ccc2nc(Oc3ccc(F)cc3C(O)Cn3ccc(-c4ccc(C(F)(F)F)cc4)n3)c(Cc3ccccc3)cc2c1 (stereo not given)	6%	–
CC(c1cc(F)ccc1Oc1nc2ccc(-n3cc(-c4ccccc4)nn3)cc2cc1Cc1ccccc1)n1ccnc1 (stereo not given)	96%	MIC [2]: 3.12 µg/mL (≈ 5.51 µM); viability at 24 h, 10 ug/100 ul [3]: 88%; viability at 72 h, 10 ug/100 ul [4]: 58%; viability at 24 h, 1 ug/100 ul [5]: 100%; viability at 72 h, 1 ug/100 ul [6]: 61%
O=[N+]([O-])c1ccc2nc(Oc3ccc(F)cc3C(O)Cn3ccc(-c4cccc(Cl)c4)n3)c(Cc3ccccc3)cc2c1 (stereo not given)	0%	–
O=[N+]([O-])c1ccc2nc(Oc3ccc(F)cc3C(O)CN3CCNCC3)c(Cc3ccccc3)cc2c1 (stereo not given)	20%	–
O=[N+]([O-])c1ccc2nc(Oc3ccc(F)cc3C(O)Cn3cccn3)c(Cc3ccccc3)cc2c1 (stereo not given)	53%	–
CC(c1cc(F)ccc1Oc1nc2ccc(-n3cc(-c4ccccc4)nn3)cc2cc1Cc1ccccc1)N1CCN(c2ccc(F)cc2)CC1 (stereo not given)	20%	–
O=[N+]([O-])c1ccc2nc(Oc3ccc(F)cc3C(O)Cn3ccnc3)c(Cc3ccccc3)cc2c1 (stereo not given)	58%	–
COc1cccc(NC(=O)Nc2ccc3nc(Oc4ccc(F)cc4C(C)O)c(Cc4ccccc4)cc3c2)c1 (stereo not given)	94%	MIC [2]: 3.12 µg/mL (≈ 5.81 µM); viability at 24 h, 10 ug/100 ul [3]: 79%; viability at 72 h, 10 ug/100 ul [4]: 63%; viability at 24 h, 1 ug/100 ul [5]: 100%; viability at 72 h, 1 ug/100 ul [6]: 100%
CC(O)c1cc(F)ccc1Oc1nc2ccc(NC(=S)NCc3ccc(Cl)cc3)cc2cc1Cc1ccccc1 (stereo not given)	37%	–
COc1ccc(NC(=S)Nc2ccc3nc(Oc4ccc(F)cc4C(C)O)c(Cc4ccccc4)cc3c2)cc1 (stereo not given)	27%	–
COc1ccccc1NC(=S)Nc1ccc2nc(Oc3ccc(F)cc3C(C)O)c(Cc3ccccc3)cc2c1 (stereo not given)	14%	–
